Source: patent US20220251080A1, “SUBSTANTIALLY PURE VENETOCLAX AND AMORPHOUS VENETOCLAX IN A FREE DRUG PARTICULAT E FORM” (DR. REDDY'S LABORATORIES LIMITED, priority 2019, published 2022)

Assays:
[1] = Flow property measurement of powder (bulk density, tapped density, Hausner ratio, Carr's index); type: physicochemical; settings: for Carr's index: (tapped density-bulk density)/tapped density×100; for Tapped density: after mechanical tapping; for Hausner ratio: calculated from bulk and tapped density; for Bulk density: untapped powder sample
Excerpt: (§1) As per the flow property measurement, powder obtained by reactive agglomeration has better flow indices (Carr's index and Hausner ratio) than powder obtained by solvent-antisolvent process, disclosed in example 24 of WO2017212431.
The term “bulk density” as used herein refers to the ratio of the mass to the volume (including the interparticulate void volume) of an untapped powder sample.
The term “tapped density” as used herein and it is obtained by mechanically tapping a graduated cylinder containing the sample until little further volume change is observed.
The tapping can be performed using different methods. The tapped density is calculated as mass divided by the final volume of the powder.
The term “carr's index” as used herein and it is calculated using below formula Carr Index =(tapped density-bulk density)/tapped density×100.
The term “hausner ratio” as used herein and it is calculated using below formula Hausner Ratio […]

[2] = Filtration characteristics (specific cake resistance); type: physicochemical; settings: filtration of the suspension from the process
Excerpt: as §1
The term “specific cake resistance” as used herein refers to filter cake is formed by the substances that are retained on a filter. The filter cake grows in the course of filtration, becoming thicker as particulate matter is retained. With increasing layer thickness, the flow resistance of the filter cake increases. Specific cake resistance is a measure of this resistance offered by cake towards the flow.

| Carr's index [1] | Tapped density [1] [g/mL] | Hausner ratio [1] | Bulk density [1] [g/mL] | Specific cake resistance [2] | SMILES |
| --- | --- | --- | --- | --- | --- |
| 29.8 | 0.289 | 1.4 | 0.203 | Filter media clogged | CC1(C)CCC(CN2CCN(c3ccc(C(=O)NS(=O)(=O)c4ccc(NCC5CCOCC5)c([N+](=O)[O-])c4)c(Oc4cnc5[nH]ccc5c4)c3)CC2)=C(c2ccc(Cl)cc2)C1 [Amorphous venetoclax obtained by Solvent-Anti solvent Proces] [4-(4-{[2-(4-chlorophenyl)-4,4dimethylcyclohex-1-en-1-yl]methyl}piperazin-1-yl)-N-({3-nitro-4-[(tetrahydro-2H-pyran-4ylmethyl)amino]phenyl}sulfonyl)-2-(1H-pyrrolo[2,3-1)]pyridin-5-yloxy)benzamide)] |
| 25.8 | 0.442 | 1.3 | 0.328 | 2.73E+10 m/Kg | CC1(C)CCC(CN2CCN(c3ccc(C(=O)NS(=O)(=O)c4ccc(NCC5CCOCC5)c([N+](=O)[O-])c4)c(Oc4cnc5[nH]ccc5c4)c3)CC2)=C(c2ccc(Cl)cc2)C1 [Amorphous venetoclax obtained by reactive agglomeration proc] [4-(4-{[2-(4-chlorophenyl)-4,4dimethylcyclohex-1-en-1-yl]methyl}piperazin-1-yl)-N-({3-nitro-4-[(tetrahydro-2H-pyran-4ylmethyl)amino]phenyl}sulfonyl)-2-(1H-pyrrolo[2,3-1)]pyridin-5-yloxy)benzamide)] |
